The source of these data is patent US20250002487A1, “HETEROCYCLIC COMPOUNDS AND USES THEREOF” (Ventus Therapeutics U.S., Inc., priority 2021, published 2025).

Some results are limits rather than exact numbers.

Sequence of human-cGAS (h-cGAS) (Q8N884 whole entry): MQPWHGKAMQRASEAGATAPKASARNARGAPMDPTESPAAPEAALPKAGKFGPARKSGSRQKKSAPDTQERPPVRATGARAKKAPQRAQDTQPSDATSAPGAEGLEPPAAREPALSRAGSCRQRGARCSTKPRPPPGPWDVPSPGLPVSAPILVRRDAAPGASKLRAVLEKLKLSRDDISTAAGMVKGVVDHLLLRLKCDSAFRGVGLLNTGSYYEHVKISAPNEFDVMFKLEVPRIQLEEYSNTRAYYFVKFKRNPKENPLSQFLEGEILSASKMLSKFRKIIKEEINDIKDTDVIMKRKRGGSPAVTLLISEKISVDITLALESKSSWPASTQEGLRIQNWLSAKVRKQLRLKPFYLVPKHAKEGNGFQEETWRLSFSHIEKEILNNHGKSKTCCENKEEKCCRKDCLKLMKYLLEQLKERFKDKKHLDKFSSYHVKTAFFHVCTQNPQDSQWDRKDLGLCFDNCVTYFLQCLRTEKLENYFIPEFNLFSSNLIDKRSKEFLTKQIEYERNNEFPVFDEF

This experiment addresses human-cGAS (h-cGAS) (Homo sapiens, UniProt Q8N884). Briefly: hcGAS Kinase-Glo Assay. Type of experiment: biochemical. Particulars: 40 nM h-cGAS, 100 μM ATP, 100 μM GTP, 25 nM dsDNA, 3 h incubation, read-out: hcGAS potency IC50. The essentials: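 Kinase-Glo luminescent read-out of human cGAS activity, following the published Lama et al. (2019) protocol with slightly altered conditions. Inhibition reported as IC50.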
(In general: In Kinase-Glo more light means more ATP remaining.)
What is called IC50 is the concentration at which inhibition is half-maximal. As to `COc1ccccc1-c1cc(C(=O)Nc2nnc(SC)s2)oc(=O)c1` [Compound 244, 4-(2-methoxyphenyl)-N-(5-methylsulfanyl-1,3,4-thiadiazol-2-yl)-6-oxo-pyran-2-carboxamide], the IC50 was in the range of 100 to 500 nM.
`CSc1nnc(NC(=O)c2onc3cc(CO)ccc23)s1` [Compound 194, 6-(hydroxymethyl)-N-(5-(methylthio)-1,3,4-thiadiazol-2-yl)benzo[c]isoxazole-3-carboxamide]: the IC50 lay within 500 to 1000 nM.
To `CNC(=O)c1cc(C(=O)Nc2nnc(-c3ccccc3Cl)s2)on1` [Compound 89, N5-(5-(2-chlorophenyl)-1,3,4-thiadiazol-2-yl)-N3-methylisoxazole-3,5-dicarboxamide] belongs 500 to 1000 nM.
For the compound `CSc1nnc(NC(=O)c2onc3c2ccc2cccnc23)s1` [Compound 94, N-(5-(methylthio)-1,3,4-thiadiazol-2-yl)isoxazolo[4,3-h]quinoline-3-carboxamide], the IC50 is 100 to 500 nM.
To `CSc1nnc(NC(=O)c2onc3c2CCc2scnc2-3)s1` [Compound 171, N-(5-(methylthio)-1,3,4-thiadiazol-2-yl)-4,5-dihydrothiazolo[5′,4′:5,6]benzo[1,2-c]isoxazole-3-carboxamide] belongs at least 1000 nM; to `O=C(Nc1nnc(-c2ccccc2Cl)s1)c1onc2c1ccc1cccnc12` [Compound 7, N-(5-(2-chlorophenyl)-1,3,4-thiadiazol-2-yl)isoxazolo[4,3-h]quinoline-3-carboxamide], under 100 nM.
For `CSc1nnc(NC(=O)c2cc(-c3ccccc3-c3cccc(CC(=O)O)c3)cc(=O)o2)s1` [Compound 177, 2-(2′-(6-((5-(methylthio)-1,3,4-thiadiazol-2-yl)carbamoyl)-2-oxo-2H-pyran-4-yl)-[1,1′-biphenyl]-3-yl)acetic acid] the value was 500 to 1000 nM; for `Cc1cccc(-c2nnc(NC(=O)c3onc4ccccc34)s2)c1` [Compound 28, N-(5-(m-tolyl)-1,3,4-thiadiazol-2-yl)benzo[c]isoxazole-3-carboxamide], at least 1000 nM.
For `COCc1cc(C(=O)Nc2nnc(-c3ccccc3Cl)s2)on1` [Compound 170, N-(5-(2-chlorophenyl)-1,3,4-thiadiazol-2-yl)-3-(methoxymethyl)isoxazole-5-carboxamide] the value was 100 to 500 nM.
Take `CSc1nnc(NC(=O)c2cnc(-c3cccs3)s2)s1` [Compound 76, N-(5-(methylthio)-1,3,4-thiadiazol-2-yl)-2-(thiophen-2-yl)thiazole-5-carboxamide]: the IC50 is at least 1000 nM.
For `CSc1nnc(NC(=O)c2nnn3c2ccc2ccccc23)s1` [Compound 190, N-(5-(methylthio)-1,3,4-thiadiazol-2-yl)-[1,2,3]triazolo[1,5-a]quinoline-3-carboxamide] the value was at least 1000 nM.
To `CSc1nnc(NC(=O)c2cc3c(C)cc(F)cc3[nH]2)s1` [Compound 78, 6-fluoro-4-methyl-N-(5-(methylthio)-1,3,4-thiadiazol-2-yl)-1H-indole-2-carboxamide] belongs 500 to 1000 nM; to `CSc1nnc(NC(=O)c2nnc(-c3c(F)cccc3F)o2)s1` [Compound 45, 5-(2,6-difluorophenyl)-N-(5-(methylthio)-1,3,4-thiadiazol-2-yl)-1,3,4-oxadiazole-2-carboxamide], 500 to 1000 nM; to `CSc1nnc(NC(=O)c2cc(-c3ccccc3F)no2)s1` [Compound 217, 3-(2-fluorophenyl)-N-(5-(methylthio)-1,3,4-thiadiazol-2-yl)isoxazole-5-carboxamide], 100 to 500 nM.
For `CSc1nnc(NC(=O)c2nnc(N3CCCC3C(=O)O)o2)s1` (centres unmarked) [Compound 111, 1-(5-{[5-(methylsulfanyl)-1,3,4-thiadiazol-2-yl]carbamoyl}-1,3,4-oxadiazol-2-yl)pyrrolidine-2-carboxylic acid] the value was 100 to 500 nM; for `CCc1cc(C(=O)Nc2nnc(-c3ccccc3Cl)s2)on1` [Compound 33, N-(5-(2-chlorophenyl)-1,3,4-thiadiazol-2-yl)-3-ethylisoxazole-5-carboxamide], 100 to 500 nM.
As to `COc1cccc(Cc2ccc3noc(C(=O)Nc4nnc(SC)s4)c3c2)c1` [Compound 161, 5-(3-methoxybenzyl)-N-(5-(methylthio)-1,3,4-thiadiazol-2-yl)benzo[c]isoxazole-3-carboxamide], the IC50 is 500 to 1000 nM.
To `Cc1nnc(NC(=O)c2onc3ccccc23)s1` [Compound 81, N-(5-methyl-1,3,4-thiadiazol-2-yl)benzo[c]isoxazole-3-carboxamide] belongs at least 1000 nM.
On to `CCc1nnc(NC(=O)c2onc3c2ccc2cccnc23)s1` [Compound 197, N-(5-ethyl-1,3,4-thiadiazol-2-yl)isoxazolo[4,3-h]quinoline-3-carboxamide], for which the IC50 was in the range of 100 to 500 nM.
To `CSc1nnc(NC(=O)c2onc3c2ccc2cnccc23)s1` [Compound 273, N-(5-(methylthio)-1,3,4-thiadiazol-2-yl)isoxazolo[3,4-f]isoquinoline-3-carboxamide] belongs at least 1000 nM; to `CSc1nnc(NC(=O)c2onc3ccccc23)s1` [Compound 79, N-(5-(methylthio)-1,3,4-thiadiazol-2-yl)benzo[c]isoxazole-3-carboxamide], 500 to 1000 nM.
On to `CSc1nnc(NC(=O)c2nnc(Cc3ccccc3)o2)s1` [Compound 259, 5-benzyl-N-(5-methylsulfanyl-1,3,4-thiadiazol-2-yl)-1,3,4-oxadiazole-2-carboxamide], for which the IC50 lay within 500 to 1000 nM.
To `O=C(Nc1nnc(C(F)(F)F)s1)c1onc2c1ccc1cccnc12` [Compound 12, N-(5-(trifluoromethyl)-1,3,4-thiadiazol-2-yl)isoxazolo[4,3-h]quinoline-3-carboxamide] belongs 100 to 500 nM.
To `COc1ccccc1-c1nnc(NC(=O)c2onc3ccccc23)s1` [Compound 24, N-(5-(2-methoxyphenyl)-1,3,4-thiadiazol-2-yl)benzo[c]isoxazole-3-carboxamide] belongs 500 to 1000 nM; to `CCc1nnc(NC(=O)c2onc3ccccc23)s1` [Compound 69, N-(5-ethyl-1,3,4-thiadiazol-2-yl)benzo[c]isoxazole-3-carboxamide], 500 to 1000 nM.
To `Cc1nnc(NC(=O)c2onc3c2ccc2cccnc23)s1` [Compound 93, N-(5-methyl-1,3,4-thiadiazol-2-yl)isoxazolo[4,3-h]quinoline-3-carboxamide] belongs 500 to 1000 nM; to `N#Cc1cc(C(=O)Nc2nnc(-c3ccccc3Cl)s2)on1` [Compound 37, N-(5-(2-chlorophenyl)-1,3,4-thiadiazol-2-yl)-3-cyanoisoxazole-5-carboxamide], under 100 nM; to `CSc1nnc(NC(=O)c2cc(-c3cncs3)no2)s1` [Compound 141, N-(5-(methylthio)-1,3,4-thiadiazol-2-yl)-3-(thiazol-5-yl)isoxazole-5-carboxamide], at least 1000 nM.
For the compound `O=C(Nc1nnc(-c2ccccc2Cl)s1)c1cc(=O)c2cccc(O)c2[nH]1` [Compound 51, N-(5-(2-chlorophenyl)-1,3,4-thiadiazol-2-yl)-8-hydroxy-4-oxo-1,4-dihydroquinoline-2-carboxamide], the IC50 lay in the range of 500 to 1000 nM.
For `COc1ccc(-c2cc(C(=O)Nc3nnc(SC)s3)on2)cc1` [Compound 210] the value was at least 1000 nM.
To `CSc1nnc(NC(=O)c2cc(-c3ccc(Cl)cc3)cc(=O)o2)s1` [Compound 243, 4-(4-chlorophenyl)-N-(5-methylsulfanyl-1,3,4-thiadiazol-2-yl)-6-oxo-pyran-2-carboxamide] belongs 500 to 1000 nM; to `CSc1nnc(NC(=O)c2cc(-c3cccc(=O)[nH]3)cc(=O)o2)s1` [Compound 276, N-(5-(methylthio)-1,3,4-thiadiazol-2-yl)-2-oxo-4-(6-oxo-1,6-dihydropyridin-2-yl)-2H-pyran-6-carboxamide], 100 to 500 nM.
To `CSc1nnc(NC(=O)c2nnc(N3CCCC[C@H]3c3ccccc3)o2)s1` (single isomer, unassigned) [Compound 122*] belongs 100 to 500 nM; to `CSc1nnc(NC(=O)c2cc(-c3cccc4c3OCCN4)cc(=O)o2)s1` [Compound 275, 4-(3,4-dihydro-2H-benzo[b][1,4]oxazin-8-yl)-N-(5-(methylthio)-1,3,4-thiadiazol-2-yl)-2-oxo-2H-pyran-6-carboxamide], 100 to 500 nM.
As to `CSc1nnc(NC(=O)c2onc3c2CCCC3=O)s1` [Compound 195, N-(5-(methylthio)-1,3,4-thiadiazol-2-yl)-7-oxo-4,5,6,7-tetrahydrobenzo[c]isoxazole-3-carboxamide], the IC50 is at least 1000 nM.
For `O=C(Nc1nnc(-c2ccccc2Cl)s1)c1ccc(O)nn1` [Compound 56, N-(5-(2-chlorophenyl)-1,3,4-thiadiazol-2-yl)-6-hydroxypyridazine-3-carboxamide] the value was 100 to 500 nM; for `CSc1nnc(NC(=O)c2onc3c2CCc2cccnc2-3)s1` [Compound 173, N-(5-(Methylthio)-1,3,4-thiadiazol-2-yl)-4,5-dihydroisoxazolo[4,3-h]quinoline-3-carboxamide], 500 to 1000 nM.
Take `CSc1nnc(NC(=O)c2noc(C3CCCCC3)n2)s1` [Compound 263, 5-cyclohexyl-N-(5-(methylthio)-1,3,4-thiadiazol-2-yl)-1,2,4-oxadiazole-3-carboxamide]: the IC50 was at least 1000 nM.
For `O=C(Nc1nnc(-c2ccccc2Cl)s1)c1cc(C2CCOCC2)no1` [Compound 38, N-(5-(2-chlorophenyl)-1,3,4-thiadiazol-2-yl)-3-(tetrahydro-2H-pyran-4-yl)isoxazole-5-carboxamide], the 50% inhibitory concentration (IC50) was in the range of 100 to 500 nM.
For `O=C(Nc1nnc(-c2ccccc2Cl)s1)c1cc(C(F)(F)F)no1` [Compound 34, N-(5-(2-chlorophenyl)-1,3,4-thiadiazol-2-yl)-3-(trifluoromethyl)isoxazole-5-carboxamide] the value was 500 to 1000 nM; for `CCCc1nnc(NC(=O)c2onc3ccccc23)s1` [Compound 20, N-(5-propyl-1,3,4-thiadiazol-2-yl)benzo[c]isoxazole-3-carboxamide], at least 1000 nM.
